Data on one compound can be found in patent US20230323395A1, “METHODS AND COMPOSITIONS FOR THE PRODUCTION OF ADENO-[…]” (Homology Medicines, Inc., priority 2021, published 2023).

Common to all, as to assay type: cell-based
Test [1] has as its system HEK293 cells (AAV producer cells). Kind of test: AAV productivity with culture media additives supplemented two hours post-transfection, shake flasks (Example 3). The method, then: (§1) For each parameter tested, HEK293 cells were expanded by shake flask culture with a target seed density of >0.25E6 viable cells/mL and a target final density of <6E6 viable cells/mL. Expanded cells were inoculated into an Applikon 3 L Glass Bioreactor containing the appropriate amount of cell culture medium prior to transfection at a 2 L working volume.
(§2) Cell transfection was performed generally as described in Grieger et al. (2016) Molecular Therapy 24(2): 287-297. Briefly, transfection mixes were prepared by mixing calculated volumes of vector(s), transfection media, and polyethylenimine (PEI), all at ambient temperature, and allowed to equilibrate before the transfection mixes were added to the cells. […] Productivity was measured by vector genome titer and capsid yield. Vector genome (VG) titer was determined by droplet digital PCR (ddPCR) by standard methods using primer/probe sets specific to the transgene payload of the vector comprising the transgene. Capsid yield was determined using enzyme-linked immunosorbent assays (ELISAs) by standard methods with an immobilized antibody directed against an epitope of the capsid as encoded by the vector comprising the capsid sequences. Percentage of intact vector genomes (% Full capsids) was calculated by dividing the vector genome productivity determined by ddPCR by the number of capsids determined by ELISA. […]

The subject of test [2] is second HEK293 cell line (AAV producer cells). Kind of test: AAV productivity at different DMSO concentrations, shake flasks (Example 7). As for the experimental part: (§3) Cell transfection was performed generally as described in Grieger et al. (2016) Molecular Therapy 24(2): 287-297. Briefly, transfection mixes were prepared by mixing calculated volumes of vector(s), transfection media, and polyethylenimine (PEI), all at ambient temperature, and allowed to equilibrate before the transfection mixes were added to the cells. Post-transfection bioreactor setpoint shifts were performed 2 hours post-transfection, and cells were harvested 72 hours post-transfection. Harvested cells were lysed as described in Grieger et al. (2016) Molecular Therapy 24(2): 287-297. Crude lysate samples were collected following centrifugation to remove cellular debris. Productivity was measured by vector genome titer and capsid yield. Vector genome (VG) titer was determined by droplet digital PCR (ddPCR) by standard methods using primer/probe sets specific to the transgene payload of the vector comprising the transgene. Capsid yield was determined using enzyme-linked immunosorbent assays (ELISAs) by standard methods with an immobilized antibody directed against an epitope of the capsid as encoded by the vector comprising the capsid sequences. Percentage of intact vector genomes (% Full capsids) was calculated by dividing the vector genome productivity determined by ddPCR by the number of capsids determined by ELISA.
The conditions of DMSO supplementation were further tested using different representative AAV particles. Experiments were performed with a second HEK293 cell line according to the methods described in Example 1 using shake flasks.
AAV productivity, in terms of vector genome (VG) titer (FIGS. 9A and 10A), capsid yield (FIGS. 9B and 10B), and percent intact vector genomes (% Full; FIGS. 9C and 10C), was measured as described in Example 1.

The test system of test [3] is HEK293 cells (AAV producer cells). Kind of test: DMSO time course analysis of AAV productivity (Example 4). The conditions noted are these: 1.5% (v/v) DMSO added two hours pre-transfection and up to 30 minutes post-transfection; compared to the other time points tested. As for the experimental part: as §1, §2
The subject of test [4] is second HEK293 cell line (AAV producer cells). Kind of test: AAV productivity with DMSO supplementation 30-120 minutes post-transfection, 3 L single-use bioreactors (Example 6). The conditions noted are these: DMSO 120 minutes vs 30 minutes post-transfection, pH 7.0, 39° C. As for the experimental part:
as §3
Based on the findings above, the effects of post-transfection pH, and the effect of supplementing the culture media with DMSO at 30-120 minutes post-transfection were further tested using a different representative AAV particle. Experiments were performed with a second HEK293 cell line according to the methods described in Examples 1 and 5 using 3 L single-use bioreactors.
AAV productivity, in terms of vector genome (VG) titer (FIG. 8A), capsid yield (FIG. 8B), and percent intact vector genomes (% Full; FIG. 8C), was measured as described in Example 1.

Setting [5] is: FIG. 9, 0.5% to 2.25% DMSO two hours post-transfection, up to a DMSO concentration of 1.5%.
Where [6] appears, read: FIG. 10, 0.75% DMSO two hours post-transfection compared with 0% DMSO.
Setting [7] is: FIG. 10, 1.5% DMSO two hours post-transfection compared with 0.75% DMSO.

Regarding `C[S+](C)[O-]` [DMSO, dimethyl sulfoxide], the VG titer result is recorded as “general increase” in test [1] (additive supplemented two hours post-transfection, ddPCR on crude lysate, over control conditions with no additive); “increased” in test [2] (setting [5]); “increased” in test [2] (setting [6]); “comparable” in test [2] (setting [7]). Moreover, the percent full capsids entry is on record as “higher percent full capsids” in test [1] (supplemented two hours post-transfection, as compared to the other additives); “increased” in test [2] (FIG. 9, 0.5% to 2.25% DMSO two hours post-transfection); “comparable” in test [2] (FIG. 9, 0.5%, 0.75%, 1.5% and 2.25% DMSO compared with each other); “comparable” in test [2] (setting [6]); “increased” in test [2] (setting [7]). The capsid titer result in test [2] (setting [5]) is “increased or comparable”; in test [2] (setting [6]), “increased”; in test [2] (setting [7]), “decreased”. In test [3], the “percent yield of full capsids” value is given as “higher percent yield of full capsids”. The VG titers entry in test [4] is “similar”. Also, the capsid yields entry in test [4] was “similar”. Moreover, the intact vector genomes entry in test [4] is listed as “similar”.
